This is an account of results in ChEMBL document CHEMBL4376833, “Influence of Non-natural Cationic Amino Acids on the Biological Activity Profile of Innate Defense Regulator Peptides” (J Med Chem, 2019).

Test [1] relates to Staphylococcus aureus. Nature of the test: Antibiofilm activity against methicillin-resistant Staphylococcus aureus assessed as inhibition of biofilm formation by measuring residual biofilm growth incubated for overnight at 10-fold dilution by crystal violet staining based microtiter plate assay relative to control. The test is classed as functional.
The subject of test [2] is Staphylococcus aureus. Nature of the test: Antibiofilm activity against methicillin-resistant Staphylococcus aureus assessed as inhibition of biofilm formation incubated for overnight by crystal violet staining based microtiter plate assay. The class given is functional, organism-based.
The test system of test [3] is Staphylococcus aureus. Nature of the test: Antibacterial activity against methicillin-resistant Staphylococcus aureus assessed as alteration in bacterial growth incubated for overnight by microtiter plate based spectrophotometric analysis. The class given is functional, organism-based.

Activity calls are given as the source filed them. How the calls were made is not given here. Non-standard residues stand in square brackets, D forms with d. Residues, ends and D or L forms follow the SMILES beside them. hArg = N=C(N)NCCCC[C@H](N)C(=O)O; Agb = N=C(N)NCC[C@H](N)C(=O)O; Orn = NCCC[C@H](N)C(=O)O; Dab = NCC[C@H](N)C(=O)O; Dap = NC[C@H](N)C(=O)O

Regarding `CC[C@H](C)[C@H](NC(=O)[C@H](CCNC(=N)N)NC(=O)[C@@H](NC(=O)[C@H](C)NC(=O)[C@@H](NC(=O)[C@@H](NC(=O)[C@H](CC(C)C)NC(=O)[C@H](CCCNC(=N)N)NC(=O)[C@@H](N)C(C)C)[C@@H](C)CC)C(C)C)C(C)C)C(=O)N[C@@H](Cc1c[nH]c2ccccc12)C(=O)N[C@@H](CCCNC(=N)N)C(=O)N[C@@H](CCCNC(=N)N)C(N)=O` (H-VRLIVAV[Agb]IWRR-NH2), the “residual biofilm growth (% of control)” value in test [1] is listed as 103.5%. Further, the inhibition entry in test [2] is “Dose-dependent effect”. Moreover, the outcome in test [3] was Active.

With H-KRLIVAVRIWRR-NH2, the “residual biofilm growth (% of control)” value in test [1] is reported as 12%. Also, in test [2], the inhibition entry is “Dose-dependent effect”. The result in test [3] was Active.

Turning to `CC[C@H](C)[C@H](NC(=O)[C@H](CCCNC(=N)N)NC(=O)[C@@H](NC(=O)[C@H](C)NC(=O)[C@@H](NC(=O)[C@@H](NC(=O)[C@H](CC(C)C)NC(=O)[C@H](CCCNC(=N)N)NC(=O)[C@@H](N)C(C)C)[C@@H](C)CC)C(C)C)C(C)C)C(=O)N[C@@H](Cc1c[nH]c2ccccc12)C(=O)N[C@@H](CCCNC(=N)N)C(=O)N[C@@H](CN)C(N)=O` (H-VRLIVAVRIWR[Dap]-NH2), the “residual biofilm growth (% of control)” value in test [1] turned out to be 11.9%. The inhibition entry in test [2] is “Dose-dependent effect”. Further, the result in test [3] was Active.

As to `CC[C@H](C)[C@H](NC(=O)[C@H](CC(C)C)NC(=O)[C@H](CCCNC(=N)N)NC(=O)[C@@H](N)C(C)C)C(=O)N[C@H](C(=O)N[C@@H](C)C(=O)N[C@H](C(=O)N[C@@H](CCCNC(=N)N)C(=O)N[C@@H](CCCCNC(=N)N)C(=O)N[C@@H](Cc1c[nH]c2ccccc12)C(=O)N[C@@H](CCCNC(=N)N)C(=O)N[C@@H](CCCNC(=N)N)C(N)=O)C(C)C)C(C)C` (H-VRLIVAVR[hArg]WRR-NH2), the “residual biofilm growth (% of control)” value in test [1] worked out at 84.7%. Besides, the inhibition entry in test [2] is “Dose-dependent effect”. Further, in test [3], the outcome was Active.

In the case of `CC[C@H](C)[C@H](NC(=O)[C@H](CCCNC(=N)N)NC(=O)[C@@H](NC(=O)[C@H](CN)NC(=O)[C@@H](NC(=O)[C@@H](NC(=O)[C@H](CC(C)C)NC(=O)[C@H](CCCNC(=N)N)NC(=O)[C@@H](N)C(C)C)[C@@H](C)CC)C(C)C)C(C)C)C(=O)N[C@@H](Cc1c[nH]c2ccccc12)C(=O)N[C@@H](CCCNC(=N)N)C(=O)N[C@@H](CCCNC(=N)N)C(N)=O` (H-VRLIV[Dap]VRIWRR-NH2), in test [1], the “residual biofilm growth (% of control)” value was found to be 34.1%. Also, the inhibition entry in test [2] was “Dose-dependent effect”. In addition, the outcome in test [3] was Active.

On to `CC[C@H](C)[C@H](NC(=O)[C@H](CCCNC(=N)N)NC(=O)[C@@H](NC(=O)[C@H](C)NC(=O)[C@@H](NC(=O)[C@@H](NC(=O)[C@H](CC(C)C)NC(=O)[C@H](CCCNC(=N)N)NC(=O)[C@@H](N)C(C)C)[C@@H](C)CC)C(C)C)C(C)C)C(=O)N[C@@H](CN)C(=O)N[C@@H](CCCNC(=N)N)C(=O)N[C@@H](CCCNC(=N)N)C(N)=O` (H-VRLIVAVRI[Dap]RR-NH2), for which the “residual biofilm growth (% of control)” value in test [1] was determined as 15%. The inhibition result in test [2] is “Dose-dependent effect”. Also, the outcome in test [3] was Active.

Regarding `CC[C@H](C)[C@H](NC(=O)[C@H](CN)NC(=O)[C@@H](NC(=O)[C@H](C)NC(=O)[C@@H](NC(=O)[C@@H](NC(=O)[C@H](CC(C)C)NC(=O)[C@H](CCCNC(=N)N)NC(=O)[C@@H](N)C(C)C)[C@@H](C)CC)C(C)C)C(C)C)C(=O)N[C@@H](Cc1c[nH]c2ccccc12)C(=O)N[C@@H](CCCNC(=N)N)C(=O)N[C@@H](CCCNC(=N)N)C(N)=O` (H-VRLIVAV[Dap]IWRR-NH2), in test [1], the “residual biofilm growth (% of control)” value stood at 26.8%. For the same compound, the inhibition result in test [2] was “Dose-dependent effect”. Besides, the outcome in test [3] was Active.

Regarding H-VRLRVAVRIWRR-NH2, the “residual biofilm growth (% of control)” value in test [1] is reported as 15%. Besides, the inhibition entry in test [2] was “Dose-dependent effect”. For the same compound, the result in test [3] was Active.

For the compound `CC[C@H](C)[C@H](NC(=O)[C@H](CCCN)NC(=O)[C@@H](NC(=O)[C@H](C)NC(=O)[C@@H](NC(=O)[C@@H](NC(=O)[C@H](CC(C)C)NC(=O)[C@H](CCCNC(=N)N)NC(=O)[C@@H](N)C(C)C)[C@@H](C)CC)C(C)C)C(C)C)C(=O)N[C@@H](Cc1c[nH]c2ccccc12)C(=O)N[C@@H](CCCNC(=N)N)C(=O)N[C@@H](CCCNC(=N)N)C(N)=O` (H-VRLIVAV[Orn]IWRR-NH2), in test [1], the “residual biofilm growth (% of control)” value came to 14%. In addition, the inhibition result in test [2] is “Dose-dependent effect”. Moreover, the outcome in test [3] was Active.

For `CC[C@H](C)[C@H](NC(=O)[C@H](CC(C)C)NC(=O)[C@H](CCCNC(=N)N)NC(=O)[C@@H](N)C(C)C)C(=O)N[C@H](C(=O)N[C@@H](C)C(=O)N[C@H](C(=O)N[C@@H](CCCNC(=N)N)C(=O)N[C@@H](CCN)C(=O)N[C@@H](Cc1c[nH]c2ccccc12)C(=O)N[C@@H](CCCNC(=N)N)C(=O)N[C@@H](CCCNC(=N)N)C(N)=O)C(C)C)C(C)C` (H-VRLIVAVR[Dab]WRR-NH2), the “residual biofilm growth (% of control)” value in test [1] turned out to be 102%. In addition, the inhibition entry in test [2] is “Dose-dependent effect”. Moreover, the outcome in test [3] was Active.

As for `CC[C@H](C)[C@H](NC(=O)[C@H](CCCCNC(=N)N)NC(=O)[C@@H](NC(=O)[C@H](C)NC(=O)[C@@H](NC(=O)[C@@H](NC(=O)[C@H](CC(C)C)NC(=O)[C@H](CCCNC(=N)N)NC(=O)[C@@H](N)C(C)C)[C@@H](C)CC)C(C)C)C(C)C)C(=O)N[C@@H](Cc1c[nH]c2ccccc12)C(=O)N[C@@H](CCCNC(=N)N)C(=O)N[C@@H](CCCNC(=N)N)C(N)=O` (H-VRLIVAV[hArg]IWRR-NH2), the “residual biofilm growth (% of control)” value in test [1] turned out to be 26.3%. Also, the inhibition entry in test [2] was “Dose-dependent effect”. The result in test [3] was Active.

Consider `CC[C@H](C)[C@H](NC(=O)[C@H](CCCNC(=N)N)NC(=O)[C@@H](NC(=O)[C@H](C)NC(=O)[C@@H](NC(=O)[C@@H](NC(=O)[C@H](CN)NC(=O)[C@H](CCCNC(=N)N)NC(=O)[C@@H](N)C(C)C)[C@@H](C)CC)C(C)C)C(C)C)C(=O)N[C@@H](Cc1c[nH]c2ccccc12)C(=O)N[C@@H](CCCNC(=N)N)C(=O)N[C@@H](CCCNC(=N)N)C(N)=O` (H-VR[Dap]IVAVRIWRR-NH2), for which the “residual biofilm growth (% of control)” value in test [1] was 104.7%. Also, in test [2], the inhibition result is “Dose-dependent effect”. For the same compound, the result in test [3] was Active.

Consider `CC[C@H](C)[C@H](NC(=O)[C@H](CCCNC(=N)N)NC(=O)[C@H](CCCN)NC(=O)[C@H](C)NC(=O)[C@@H](NC(=O)[C@@H](NC(=O)[C@H](CC(C)C)NC(=O)[C@H](CCCNC(=N)N)NC(=O)[C@@H](N)C(C)C)[C@@H](C)CC)C(C)C)C(=O)N[C@@H](Cc1c[nH]c2ccccc12)C(=O)N[C@@H](CCCNC(=N)N)C(=O)N[C@@H](CCCNC(=N)N)C(N)=O` (H-VRLIVA[Orn]RIWRR-NH2), for which the “residual biofilm growth (% of control)” value in test [1] is 103%. For the same compound, in test [2], the inhibition result was “Dose-dependent effect”. Besides, the outcome in test [3] was Active.

As for `CC[C@H](C)[C@H](NC(=O)[C@H](CC(C)C)NC(=O)[C@H](CCCNC(=N)N)NC(=O)[C@@H](N)C(C)C)C(=O)N[C@H](C(=O)N[C@@H](C)C(=O)N[C@H](C(=O)N[C@@H](CCCNC(=N)N)C(=O)N[C@@H](CCCN)C(=O)N[C@@H](Cc1c[nH]c2ccccc12)C(=O)N[C@@H](CCCNC(=N)N)C(=O)N[C@@H](CCCNC(=N)N)C(N)=O)C(C)C)C(C)C` (H-VRLIVAVR[Orn]WRR-NH2), in test [1], the “residual biofilm growth (% of control)” value came out at 79.3%. Moreover, in test [2], the inhibition entry was “Dose-dependent effect”. In addition, in test [3], the result was Active.

`CC[C@H](C)[C@H](NC(=O)[C@H](CCCNC(=N)N)NC(=O)[C@@H](NC(=O)[C@H](C)NC(=O)[C@@H](NC(=O)[C@@H](NC(=O)[C@H](CC(C)C)NC(=O)[C@H](CCNC(=N)N)NC(=O)[C@@H](N)C(C)C)[C@@H](C)CC)C(C)C)C(C)C)C(=O)N[C@@H](Cc1c[nH]c2ccccc12)C(=O)N[C@@H](CCCNC(=N)N)C(=O)N[C@@H](CCCNC(=N)N)C(N)=O` (H-V[Agb]LIVAVRIWRR-NH2): the “residual biofilm growth (% of control)” value in test [1] is given as 29.6%. For the same compound, in test [2], the inhibition entry is “Dose-dependent effect”. Further, in test [3], the result was Active.

For the compound H-VRLIVAVRIWRK-NH2, the “residual biofilm growth (% of control)” value in test [1] is 6%. Also, the inhibition result in test [2] was “Dose-dependent effect”. Besides, the result in test [3] was Active.

Consider H-VRKIVAVRIWRR-NH2, for which, in test [1], the “residual biofilm growth (% of control)” value is 88.8%. The inhibition result in test [2] was “Dose-dependent effect”. Also, the result in test [3] was Active.
